Measured values taken from patent US20070093457A1, “Compositions for treatment of cancer and inflammation with curcumin and at least one nsaid” (priority 2004, published 2007).

Columns and labels:
RASF cells = test: RASF apoptosis, flow-cytometric analysis
COX-2 = conditions: HT-29; curcumin 10-15 μM
Experimental: PGE2 concentration in the medium, as released by the cells, was determined by a commercially available PGE2-specific enzyme-linked immunoassay (R&D Biosystems, Abingdon, UK) according to the manufacturer's protocol.

COX-2 mRNA = test: Reverse transcriptase PCR of COX-2 mRNA; format: cell-based, human; conditions: HT-29; selected concentrations
Experimental: HT-29 cells were treated with the selected drugs as indicated. The mRNA was extracted, and equal amounts were transcribed to cDNA from a kit (Promega, CITY, USA). The cDNA was taken from samples at various times and used as the DNA templates for PCR. Primers used for COX-2 were: […]
GAPDH was used to ensure equal loading. […] were used as the template and […] of each primer was used for each cDNA sample. The samples went through 30 rounds of PCR. They were separated on 1% agarose gel and visualized by ethidium bromide. 7. Measurement of PGE2 Concentration

RASFs = test: RASF cell viability assay (XTT); format: cell-based; conditions: Homo sapiens, 72 hours, read-out: IC50 cell growth
Experimental: RASFs that had been prepared from small pieces (2 mm in diameter) of human synovial tissue were grown after trypsinization in monolayers in tissue culture flasks, as known to a person skilled in the art. The synovial tissue specimens were obtained during total knee replacement surgery in patients diagnosed as having rheumatoid arthritis according to the revised criteria of the American College of Rheumatology. Synovial tissue was digested for 2 hours with 0.2% (weight/volume) bacterial collagenase and then suspended in Dulbecco's modified Eagle's medium (DMEM, Biological Industries, Israel) with 10% (volume/volume) fetal calf serum (FCS), 100 units/ml penicillin, and […] streptomycin. The cells were incubated at 37° C. in 5% CO2 for 3-5 days, after which the non-adherent cells were removed. Fibroblast-like adherent cells from the first or second passage were used as RASFs.
RASFs (1.5×10^4/well) were incubated at 37° C. in 96-well plastic plates with test drugs in DMEM containing 10% FCS in an atmosphere of 5% CO2 (fmal dimethyl sulfoxide concentration 0.1%). After 72 hours, cell viability was assessed by the ability of metabolically active cells to reduce tetrazolium salt (XTT) to colored formazan compounds. The absorbance of the samples was measured with a specific enzyme-linked immunoassay (ELISA) reader (wavelength 450 nm; reference wavelength 630 nm). […]

Compound: COc1cc(/C=C/C(=O)CC(=O)/C=C/c2ccc(O)c(OC)c2)ccc1O [curcumin]
- cell apoptosis (cells with sub-diploid DNA content) (RASF cells; curcumin 20 μM): 4.7%
- effect on PGE2 synthesis (COX-2): dose-dependent effect
- COX-2 mRNA expression (COX-2 mRNA): no effect
- IC50 (RASFs): 35 µM

Compound: Cc1ccc(-c2cc(C(F)(F)F)nn2-c2ccc(S(N)(=O)=O)cc2)cc1 [celecoxib, reference compound]
- cell apoptosis (cells with sub-diploid DNA content) (RASF cells; celecoxib 20-40 μM): 4.8-19.2%
- IC50 (RASFs): 40 µM
